In patent US11542249B2, “BTK inhibitor compounds” (Eli Lilly and Company, priority 2017, dated 2023):

Tests used:
[1] = Rat Oral Bioavailability; assay type: in vivo, Sprague-Dawley rats; conditions: Sprague-Dawley, plasma, PO 3 mg/kg vs IV 1 mg/kg, read-out: Rat Oral Bioavailability (% F)
Protocol: The test compound is administered to Sprague-Dawley rats intravenously (IV) at 1 mg/kg (using vehicles of either: 20% CAPTISOL® in 25 mM sodium phosphate buffer, pH2 quantum satis; or 25% DMA, 15% EtOH, 10% propylene glycol, 25% 2-pyrrolidone, and 25% purified water) and orally (PO) at 3 mg/kg (using a vehicle of 1% hydroxyethyl cellulose, 0.25% polysorbate 80, 0.05% Antifoam 1510-US, and purified water quantum satis). Serial blood samples are collected at 0.08, 0.25, 0.5, 1, 2, 4, 8, and 12 h post dose for IV bolus and at 0.25, 0.5, 1, 2, 4, 8, and 12 h post dose after oral administration. After treatment with an EDTA […], plasma is obtained by centrifugation and stored at −70° C. until analysis by LC-MS/MS. Test article concentration is determined in plasma and uploaded into the Watson LIMS™ system where noncompartmental analysis is used to calculate Area Under the Curve (AUC) for both IV and PO arms. Bioavailability (% F) is calculated via the following equation, %F=(AUCPO×DoseIV)/(AUCIV×DosePO)×100. Table 3 indicates the rat oral bioavailability of select BTK inhibitors.

[2] = tested on: activated B cells in human whole blood (CD69); assay: Human Whole Blood CD69 in vitro assay (B cell activation, flow cytometry); assay type: cell-based; conditions: IC50 value ± standard deviation, anti-human-IgD-Dextran stimulation, read-out: HWB CD69 Rel IC50
Protocol: Human Whole Blood CD69 in Vitro Assay:
The HWB CD69 assay measures activated B cells in human whole blood using a flow cytometer. Compounds are diluted and added to assay plates with a Labcyte ECHO® 555 liquid handler. Compounds are tested in 10 point dose response curves (20 μM-0.001 μM) in 96-well v-bottom plates with a maximum DMSO concentration of 0.2%. Fresh blood from individual healthy volunteer is mixed with HEPES (0.5 ml HEPES added per 10 ml blood) and 100 μl/well is added to compound plates. The plates are sealed and incubated in a 37° C. incubator for 3 h. Anti-human-IgD-Dextran is added to each well to give a final concentration of 100 ng/ml, mixed, and put back into the incubator. After 1 h, the cells are washed with cold FACS buffer and transferred to a deep well plate. The cells are incubated with anti-human CD69-PE (BIOLEGEND®, clone FN50) and anti-human CD19-APC (BIOLEGEND®, clone HIB19) antibodies on ice for 20 min. The cells are washed and incubated in eBioscience™ 1-step Fix/Lyse solution (10×) at RT to lyse the red blood cells and fix the other cells. The white cells are pelleted and washed in FACS buffer and then brought up in read buffer. The suspended cells are transferred to 96-well round bottom plates and read on an IntelliCyt iQue® Screener Plus flow cytometer. From the SSC (Side Scatter Channel) vs FSC (Forward Scatter Channel) graph, the lymphocytes are identified. Lymphocytes are identified with gated on positive CD19 marker for quantify CD69 (a marker of activated B lymphocytes) MFI (mean fluorescent intensity/cell). The signal ratio is converted to percent inhibition using the following equation: % Inhibition=100−[(Test Compound−Median Min)/(Median Max−Median Min)×100].
(§1) The following Table 1 and Table 2 describes the relative IC50 data vs. human BTK, human EGFR, and human whole blood CD69.

[3] = target: human BTK (Homo sapiens (Human), UniProt Q06187); assay: BTK LANTHASCREEN Eu Kinase Binding Assay; conditions: IC50 value ± standard deviation; full-length His-labeled BTK, kinase tracer 236; read-out: hBTK Rel IC50
Sequence of human BTK (Q06187 whole entry): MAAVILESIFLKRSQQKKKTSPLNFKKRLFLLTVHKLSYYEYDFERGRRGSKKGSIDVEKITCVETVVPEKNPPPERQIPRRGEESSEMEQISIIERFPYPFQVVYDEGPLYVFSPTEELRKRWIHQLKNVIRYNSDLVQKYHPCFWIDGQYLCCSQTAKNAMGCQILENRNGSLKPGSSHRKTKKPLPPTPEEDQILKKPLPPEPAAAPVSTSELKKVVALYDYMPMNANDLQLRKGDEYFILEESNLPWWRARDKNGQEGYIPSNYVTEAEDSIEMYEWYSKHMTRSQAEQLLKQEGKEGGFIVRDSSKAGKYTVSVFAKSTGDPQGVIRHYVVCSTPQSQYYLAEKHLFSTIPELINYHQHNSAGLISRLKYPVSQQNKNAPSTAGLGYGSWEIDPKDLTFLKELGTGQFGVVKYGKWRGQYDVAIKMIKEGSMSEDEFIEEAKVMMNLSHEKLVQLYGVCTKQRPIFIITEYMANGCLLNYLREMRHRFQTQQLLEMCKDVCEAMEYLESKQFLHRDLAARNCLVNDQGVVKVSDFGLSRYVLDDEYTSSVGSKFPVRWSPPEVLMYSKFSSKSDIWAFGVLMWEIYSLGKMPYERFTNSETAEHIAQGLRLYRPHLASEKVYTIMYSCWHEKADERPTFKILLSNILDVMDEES
Protocol: (§2) BTK and EGFR in Vitro Assays:
(§3) The BTK and EGFR biochemical assays utilize LANTHASCREEN® Eu Kinase Binding Assays from Thermo Fisher Scientific, measuring the binding of the kinase with a […] tracer. The assay buffer consists of 50 mM HEPES pH 7.5, 0.01% BRU™-35, 10 mM MgCl2, 1 mM EGTA, and 1 mM DTT. The test compounds are diluted and added to the assay plate with a Labcyte ECHO® 555 liquid handler. The compounds are tested in 10 point dose response curves (100 μM-0.005 μM) with a maximum DMSO concentration of 1%. The assays are performed in 20 μL in low-volume 384-well white proxiplates. For the BTK assay, the concentration of full-length His-labeled BTK in the assay is 5 nM, the Eu-anti-His antibody is 2 nM, and the kinase tracer 236 is 60 nM. For the EGFR assay, the concentration of truncated (amino acids 668-1210) GST-labeled EGFR is 5 nM, the Eu-anti-GST antibody is 2 nM, and the kinase tracer 199 is 10 nM. The components of the assay (compound, enzyme/antibody, tracer) are assembled and incubated for 30 min prior to being read on a Perkin-Elmer EnVision with excitation at 340 nm, tracer emission at 665 nm, and antibody emission at 615 nm. The signal ratio is converted to percent inhibition using the following equation: % Inhibition=100−[(Test Compound−Median Minimum)/(Median Maximum−Median Minimum)×100].
as §1

[4] = target: human EGFR (Homo sapiens (Human), UniProt P00533); assay: EGFR LANTHASCREEN Eu Kinase Binding Assay; conditions: IC50 value ± standard deviation; truncated GST-labeled EGFR, kinase tracer 199; read-out: hEGFR Rel IC50
Sequence of human EGFR (P00533 668-1210): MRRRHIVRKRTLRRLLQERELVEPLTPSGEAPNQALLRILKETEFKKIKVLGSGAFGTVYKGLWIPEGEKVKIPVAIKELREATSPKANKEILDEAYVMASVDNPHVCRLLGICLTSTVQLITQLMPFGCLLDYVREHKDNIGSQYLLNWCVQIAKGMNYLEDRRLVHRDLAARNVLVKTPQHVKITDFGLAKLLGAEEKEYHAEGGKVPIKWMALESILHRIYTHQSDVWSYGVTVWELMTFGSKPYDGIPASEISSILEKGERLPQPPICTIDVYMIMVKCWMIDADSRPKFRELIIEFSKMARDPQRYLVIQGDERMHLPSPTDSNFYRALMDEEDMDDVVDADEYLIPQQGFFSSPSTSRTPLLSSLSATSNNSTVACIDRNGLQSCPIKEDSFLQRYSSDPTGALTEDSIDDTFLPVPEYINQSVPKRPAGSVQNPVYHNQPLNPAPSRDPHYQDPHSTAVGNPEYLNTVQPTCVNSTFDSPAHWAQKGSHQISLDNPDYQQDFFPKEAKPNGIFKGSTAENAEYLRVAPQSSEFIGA
Protocol: as §2, §3

[5] = tested on: type II collagen-induced arthritis (CIA) rat model; assay: Rat In Vivo Collagen-Induced Arthritis Assay; design: species or system Female Lewis rats; conditions: for % inhibition paw thickness AUC vs Vehicle control / % paw thickness AUC (mm) ± SE: CIA rats, 9 days; for arthritis severity in CIA rats: compared to vehicle treated CIA rats
Protocol: A type II collagen-induced arthritis (CIA) rat model may be used to evaluate the therapeutic effects of compounds. Female Lewis rats (Charles River Charles River Laboratories, Inc.) with a mean body weight of 155-175 g are used for the study. Animals are fed with standard rodent chow and provided water ad libitum. Immunization emulsion is prepared with 2 mg/ml bovine collagen-II mixed with an equal volume of incomplete Freund's adjuvant (IFA). Rats are immunized intradermally with 0.4 ml collagen emulsion in two sites each on the lower lumbar region, above the base of the tail on day 1, and again on day 8. Animals are randomized based on the paw thickness and body weight on day 11 into study groups, with 8 rats in each group. Compounds are prepared in 1% HEC/0.25% P80/0.05% anti-foam in purified water and dosed daily via oral gavage for 9 days. Paw thickness is quantitated daily using a caliper measurement in the right ankle site.
The inhibition by the compounds of the invention is evaluated using Dunnett's post test for multiple comparisons for the CIA rat groups treated with the indicated Example compound, at the indicated dose, as compared to CIA rat groups treated with vehicle, and differences of P<0.05 are considered to be significant. […] Mean sum paw thickness is decreased compared to vehicle treated CIA rats. Mean percent paw thickness inhibition during the treatment period illustrates dose-related improvement.
Table 4 indicates the in vivo activity for exemplified BTK inhibitors in the collagen-induced arthritis model (SE=standard error).

Row | Structure (SMILES) | bioavailability [1] | IC50 [2] | IC50 [3] | IC50 [4] | % inhibition paw thickness AUC vs Vehicle control ([5]; 1 mg/kg/d oral) | % paw thickness AUC (mm) ± SE ([5]; 1 mg/kg/d oral) | % inhibition paw thickness AUC vs Vehicle control ([5]; 3 mg/kg/d oral) | % paw thickness AUC (mm) ± SE ([5]; 3 mg/kg/d oral) | % inhibition paw thickness AUC vs Vehicle control ([5]; 10 mg/kg/d oral) | % paw thickness AUC (mm) ± SE ([5]; 10 mg/kg/d oral) | arthritis severity in CIA rats [5]
1 | C=CC(=O)N1CCC(Nc2cncc(-c3cnc(Nc4cccc(Cl)c4)nc3)c2)CC1 [Example 19, 1-[4-[[5-[2-(3-chloroanilino)pyrimidin-5-yl]-3-pyridyl]amino]-1-piperidyl]prop-2-en-1-one] | 79.2% | 0.148 ± 0.0331 µM | < 0.005 µM | 0.523 ± 0.112 µM | – | – | – | – | – | – | –
2 | C=CC(=O)N1CC(Nc2cncc(-c3cnc(Oc4cccc(OC(F)F)c4)nc3)n2)C1 [Example 24, 1-[3-[[6-[2-[3-(difluoromethoxy)phenoxy]pyrimidin-5-yl]pyrazin-2-yl]amino]azetidin-1-yl]prop-2-en-1-one] | 41% | 0.177 ± 0.0416 µM | 0.00853 ± 0.00324 µM | – | 28% | 65.04 ± 2.31 mm | 49% | 61.43 ± 4.47 mm | 63% | 59.24 ± 1.49 mm | dose-related reduction
3 | C=CC(=O)N1CC(Nc2cncc(-c3cnc(Oc4cccc(OC)c4)nc3)n2)C1 [Example 42, 1-[3-[[6-[2-(3-methoxyphenoxy)pyrimidin-5-yl]pyrazin-2-yl]amino]azetidin-1-yl]prop-2-en-1-one] | – | 0.226 ± 0.053 µM | 0.0194 ± 0.00167 µM | 2.82 ± 0.492 µM | – | – | – | – | – | – | –
4 | C=CC(=O)N1CC(Nc2cncc(-c3cnc(Oc4cccc(F)c4)nc3)c2)C1 [Example 11, 1-[3-[[5-[2-(3-fluorophenoxy)pyrimidin-5-yl]-3-pyridyl]amino]azetidin-1-yl]prop-2-en-1-one] | – | 0.242 ± 0.0912 µM | 0.0181 ± 0.00305 µM | 0.644 ± 0.0618 µM | – | – | – | – | – | – | –

Continued, in another order:

Row | bioavailability [1] | IC50 [2] | IC50 [3] | IC50 [4] | Structure (SMILES) | % inhibition paw thickness AUC vs Vehicle control ([5]; 1 mg/kg/d oral) | % paw thickness AUC (mm) ± SE ([5]; 1 mg/kg/d oral) | % inhibition paw thickness AUC vs Vehicle control ([5]; 3 mg/kg/d oral) | % paw thickness AUC (mm) ± SE ([5]; 3 mg/kg/d oral) | % inhibition paw thickness AUC vs Vehicle control ([5]; 10 mg/kg/d oral) | % paw thickness AUC (mm) ± SE ([5]; 10 mg/kg/d oral) | arthritis severity in CIA rats [5]
5 | 36.8% | 0.126 ± 0.0297 µM | 0.00611 µM | 0.207 ± 0.0319 µM | C=CC(=O)N1CCC(Nc2cncc(-c3cnc(Oc4cccc(Cl)c4)nc3)n2)CC1 [Example 44, 1-[4-[[6-[2-(3-chlorophenoxy)pyrimidin-5-yl]pyrazin-2-yl]amino]-1-piperidyl]prop-2-en-1-one] | – | – | – | – | – | – | –
6 | 36.6% | 0.485 ± 0.234 µM | – | – | C=CC(=O)N1CC[C@H](Nc2cncc(-c3cnc(Oc4cccc(OC(F)F)c4)nc3)c2)C1 [Example 5, 1-[(3S)-3-[[5-[2-[3-(difluoromethoxy)phenoxy]pyrimidin-5-yl]-3-pyridyl]amino]pyrrolidin-1-yl]prop-2-en-1-one] | 34% | 71.68 ± 2.24 mm | 58% | 67.18 ± 1.07 mm | – | – | –
7 | 54.1% | 0.419 ± 0.118 µM | 0.00949 ± 0.00321 µM | 0.366 ± 0.087 µM | C=CC(=O)N1CC(Nc2cncc(-c3cnc(Oc4cccc(Cl)c4)nc3)n2)C1 [Example 31, 1-[3-[[6-[2-(3-chlorophenoxy)pyrimidin-5-yl]pyrazin-2-yl]amino]azetidin-1-yl]prop-2-en-1-one] | 62% | 66.10 ± 1.83 mm | 81% | 63.70 ± 0.96 mm | 82% | 64.33 ± 1.00 mm | dose-related reduction
8 | – | 0.227 ± 0.0811 µM | 0.031 ± 0.0124 µM | 3.39 ± 2.07 µM | C=CC(=O)N1CCC(Nc2cncc(-c3cnc(Nc4ccccn4)nc3)c2)CC1 [Example 22, 1-[4-[[5-[2-(2-pyridylamino)pyrimidin-5-yl]-3-pyridyl]amino]-1-piperidyl]prop-2-en-1-one] | – | – | – | – | – | – | –
